Results: patent US9658208B2, “Methods and G proteins for screening and identifying ligands of G protein-coupled receptors” (Fred Hutchinson Cancer Research Center, priority 2011, dated 2017)

Test system: odorant receptor (OR) that recognizes vanillin and eugenol (Rho20-eugenol receptor)
Assay: CRE-SEAP reporter gene assay, Gαs-coupled odorant receptor
Assay type: cell-based
Conditions: HEK-293 cells, 500 uM eugenol, 48 hours
Source text: A high throughput screening assay was investigated for Gαs-coupled GPCRs based on the CRE-SEAP reporter gene construct, in which five tandem cAMP response elements […] lie upstream of a gene encoding secreted alkaline phosphatase (SEAP) (Durocher et al., Anal Biochem 284: 316-326 (2000)). To ensure the general utility of the CRE-SEAP reporter gene construct for the detection of Gαs-coupled GPCR activation, HEK-293 cells were cotransfected with the CRE-SEAP construct together with expression vectors encoding either a β2-adrenergic receptor or an odorant receptor (OR) that recognizes vanillin and eugenol. Both receptors are GPCRs that couple to Gαs subunits. The HEK-293 cells expressing the β2-adrenergic receptor were grown for 48 hours in the presence or absence of 10 uM isoproterenol. The HEK-293 cells expressing the OR were grown for 48 hours in the presence of 500 uM eugenol. After growing in the presence of the ligands, the cells were assayed for SEAP activity using a fluorescent alkaline phosphatase substrate and a fluorescence plate reader. […]
Following transfection, the cells were maintained for 48 hours in 200 ul serum free media containing either 10 uM isoproterenol (Sigma) or 500 uM eugenol (Sigma). […] Fluorescence was then measured using a CytoFluor 4000 multi well plate reader (Applied Biosystems).

**Q.** With `C=CCc1ccc(O)c(OC)c1` [eugenol] as the molecule, how does the SEAP activity read?
**A.** Its SEAP activity is “increase in SEAP activity”.
